Data as given in patent publication US20240217989A1, “Heteroaryl Fluoroalkenes As DGK Inhibitors” (Incyte Corporation, priority 2022, published 2024).

Experiments:
DGKα = molecular target: T1, DGKα (Homo sapiens, UniProt P23743); test: In vitro DGKα inhibition assay (ADP-Glo); type: biochemical; conditions: His-tagged human recombinant enzyme; 0.1 nM DGKα, 50 μM ATP, 20 μM DLG; 90 minute incubation; ADP-Glo luminescence
T1 construct: His; purchased Signal Chem D21-10BH
Method: (§1) The DGKα and DGKζ biochemical reactions were performed using His-tagged human recombinant enzymes (Signal Chem, DGKα, #D21-10BH; DGKζ, #D30-10H)) and DLG (Dilauroyl-sn-glycerol) lipid substrate (Signal Chem, #D430-59). ADP-Glo assay was performed using ADP-Glo™ kinase Assay kit (Promega, #V9104). The reactions were carried out in assay buffer containing 40 mM Tris, pH 7.5, 0.1% CHAPS, 0.1% Prionex, 40 mM NaCl, 5 mM MgCl2, 1 mM CaCl2, and 1 mM DTT. DGKα reactions contained 0.1 nM DGKα, 50 μM ATP, and 20 μM DLG. And DGKζ reactions contained 0.4 nM DGKζ, 30 μM ATP, and 20 μM DLG. For compound inhibition studies, 40 nL test compound in DMSO was added to wells of white polystyrene plates in 384-well (Greiner, #784075) or 1536-well format (Greiner, #782075). Compounds were added with top concentration of 2 mM with 11 point, 3-fold dilution series. Enzyme solution (contains 2× DGK enzyme concentration in 1× assay buffer) was added to the plate in 2 μL/well volume, followed by 2 μL/well of substrate solution (contains 2× concentration of ATP and DLG substrate in 1× assay buffer). Plates were then centrifuged for 1 min at 1200 RPM and sealed or lidded. For 4 μL reaction volume, test compounds were therefore diluted 100× to final top concentration of 20 μM. After 90 minute incubation, reactions were quenched by addition of 2 μL/well Promega ADP-Glo Reagent, followed by centrifugation and lidding. After 60 min incubation, 2 μL/well Promega Kinase Detection Reagent was added, plates centrifuged, and incubated for 30 min. Plates were then read using Luminescence method on BMG PHERAstar FSX plate reader. Percent inhibition was calculated and IC50s were determined using 4-parameter fit in Genedata Screener. Labcyte Echo acoustic dispenser was used for compound addition, and Formulatrix Tempest liquid handler was used for all reagent dispenses.

DGKζ = DGKζ (Homo sapiens, UniProt Q13574); test: In vitro DGKζ inhibition assay (ADP-Glo); type: biochemical; conditions: His-tagged human recombinant enzyme; 0.4 nM DGKζ, 30 μM ATP, 20 μM DLG; 90 minute incubation; ADP-Glo luminescence
Sequence of DGKζ (Q13574 whole entry): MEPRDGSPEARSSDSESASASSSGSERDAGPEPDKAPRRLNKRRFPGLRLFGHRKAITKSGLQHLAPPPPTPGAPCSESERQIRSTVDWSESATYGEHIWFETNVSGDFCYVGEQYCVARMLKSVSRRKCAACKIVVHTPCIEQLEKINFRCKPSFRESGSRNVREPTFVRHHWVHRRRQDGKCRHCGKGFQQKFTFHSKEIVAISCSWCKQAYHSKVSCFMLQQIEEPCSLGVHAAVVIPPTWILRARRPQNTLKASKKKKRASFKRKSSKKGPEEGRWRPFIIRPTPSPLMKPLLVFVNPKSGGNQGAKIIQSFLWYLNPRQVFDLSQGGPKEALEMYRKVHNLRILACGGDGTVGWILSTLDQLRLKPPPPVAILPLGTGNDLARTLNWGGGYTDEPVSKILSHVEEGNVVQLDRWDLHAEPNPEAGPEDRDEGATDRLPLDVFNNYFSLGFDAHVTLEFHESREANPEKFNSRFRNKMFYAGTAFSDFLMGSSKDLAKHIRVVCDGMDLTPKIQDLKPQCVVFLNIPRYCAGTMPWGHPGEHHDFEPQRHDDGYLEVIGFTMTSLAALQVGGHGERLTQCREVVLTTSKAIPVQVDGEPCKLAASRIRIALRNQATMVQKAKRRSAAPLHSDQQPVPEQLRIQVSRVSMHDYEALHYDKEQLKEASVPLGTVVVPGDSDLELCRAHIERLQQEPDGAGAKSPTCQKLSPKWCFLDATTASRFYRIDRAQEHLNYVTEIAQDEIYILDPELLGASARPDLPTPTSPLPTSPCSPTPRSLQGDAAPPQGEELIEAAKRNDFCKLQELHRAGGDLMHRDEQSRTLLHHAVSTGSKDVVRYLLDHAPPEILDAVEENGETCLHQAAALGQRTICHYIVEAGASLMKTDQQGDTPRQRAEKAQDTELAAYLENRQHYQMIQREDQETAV
Method: as §1

T1 sequence (P23743 whole entry): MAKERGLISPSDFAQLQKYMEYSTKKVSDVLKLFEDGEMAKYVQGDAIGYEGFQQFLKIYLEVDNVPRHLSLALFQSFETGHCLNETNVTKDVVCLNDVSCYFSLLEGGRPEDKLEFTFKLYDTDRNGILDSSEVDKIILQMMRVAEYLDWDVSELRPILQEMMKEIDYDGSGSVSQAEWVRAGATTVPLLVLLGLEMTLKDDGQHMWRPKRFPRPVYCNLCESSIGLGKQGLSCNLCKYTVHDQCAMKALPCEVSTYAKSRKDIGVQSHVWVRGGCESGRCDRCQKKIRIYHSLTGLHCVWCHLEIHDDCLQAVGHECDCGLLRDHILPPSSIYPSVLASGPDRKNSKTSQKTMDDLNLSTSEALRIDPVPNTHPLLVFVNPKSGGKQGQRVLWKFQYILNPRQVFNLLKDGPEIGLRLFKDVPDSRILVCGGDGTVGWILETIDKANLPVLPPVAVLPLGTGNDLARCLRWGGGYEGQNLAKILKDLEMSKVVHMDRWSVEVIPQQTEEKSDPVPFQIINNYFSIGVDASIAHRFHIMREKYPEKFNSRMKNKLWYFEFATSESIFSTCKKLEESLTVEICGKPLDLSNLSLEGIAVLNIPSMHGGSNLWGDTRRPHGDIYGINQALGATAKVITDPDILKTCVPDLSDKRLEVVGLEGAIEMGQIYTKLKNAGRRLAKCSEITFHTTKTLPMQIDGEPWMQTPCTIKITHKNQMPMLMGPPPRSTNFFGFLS

Structure (SMILES)	IC50 (DGKα) [µM]	IC50 (DGKζ) [µM]
NC[C@@H]1CCCN(c2c(/C=C(\F)c3cc4nccnc4c(N4CC(F)(F)C4)n3)ccc(Oc3ccccc3F)c2C(F)(F)F)C1 [Example 1, (S,Z)-(1-(6-(2-(5-(3,3-Difluoroazetidin-1-yl)pyrido[3,4-b]pyrazin-7-yl)-2-fluorovinyl)-3-(2-fluorophenoxy)-2-(trifluoromethyl)phenyl)piperidin-3-yl)methanamine]	0.02 to 0.2	0.02 to 0.2
NC[C@@H]1CCCN(c2c(/C=C(\F)c3cn4ccnc4c(N4CC(F)(F)C4)n3)ccc(Oc3ccccc3F)c2C(F)(F)F)C1 [Example 2, (S,Z)-(1-(6-(2-(8-(3,3-Difluoroazetidin-1-yl)imidazo[1,2-a]pyrazin-6-yl)-2-fluorovinyl)-3-(2-fluorophenoxy)-2-(trifluoromethyl)phenyl)piperidin-3-yl)methanamine]	≤ 0.02	≤ 0.02
N#Cc1ncc(N2CC(F)(F)C2)nc1/C(F)=C/c1ccc(Oc2ccccc2F)c(C(F)(F)F)c1N1CCC[C@@H](CN)C1 [Example 3, (S,Z)-3-(2-(2-(3-(Aminomethyl)piperidin-1-yl)-4-(2-fluorophenoxy)-3-(trifluoromethyl)phenyl)-1-fluorovinyl)-5-(3,3-difluoroazetidin-1-yl)pyrazine-2-carbonitrile]	≤ 0.02	≤ 0.02
NC[C@@H]1CCCN(c2c(/C=C(\F)c3cncc(-c4ccns4)n3)ccc(Oc3ccccc3F)c2C(F)(F)F)C1 [Example 4, (S,Z)-(1-(6-(2-Fluoro-2-(6-(isothiazol-5-yl)pyrazin-2-yl)vinyl)-3-(2-fluorophenoxy)-2-(trifluoromethyl)phenyl)piperidin-3-yl)methanamine]	–	≤ 0.02
CN(CCCN)c1c(/C=C(\F)c2cccc(-c3ccnnc3)n2)ccc(Oc2ccccc2)c1C(F)(F)F [Example 5, (Z)-N1-(6-(2-Fluoro-2-(6-(pyridazin-4-yl)pyridin-2-yl)vinyl)-3-phenoxy-2-(trifluoromethyl)phenyl)-N1-methylpropane-1,3-diamine]	≤ 0.02	0.02 to 0.2
COc1cc(F)ccc1Oc1ccc(/C=C(\F)c2nccc(-c3ccnnc3)n2)c(N2CCC[C@@H](CN)C2)c1Cl [Example 6, (S,Z)-(1-(2-Chloro-6-(2-fluoro-2-(4-(pyridazin-4-yl)pyrimidin-2-yl)vinyl)-3-(4-fluoro-2-methoxyphenoxy)phenyl)piperidin-3-yl)methanamine]	≤ 0.02	≤ 0.02
COc1cc(F)ccc1Oc1ccc(/C=C(\F)c2ccnc(-c3ccnnc3)n2)c(N2CCC[C@@H](CN)C2)c1Cl [Example 7, (S,Z)-(1-(2-Chloro-6-(2-fluoro-2-(2-(pyridazin-4-yl)pyrimidin-4-yl)vinyl)-3-(4-fluoro-2-methoxyphenoxy)phenyl)piperidin-3-yl)methanamine]	≤ 0.02	≤ 0.02
COc1cc(F)ccc1Oc1ccc(/C=C(\F)c2nncc(N3CCC(F)(F)C3)n2)c(N2CCC[C@@H](CN)C2)c1Cl [Example 8, (S,Z)-(1-(2-Chloro-6-(2-(5-(3,3-difluoropyrrolidin-1-yl)-1,2,4-triazin-3-yl)-2-fluorovinyl)-3-(4-fluoro-2-methoxyphenoxy)phenyl)piperidin-3-yl)methanamine]	≤ 0.02	≤ 0.02
F/C(=C\c1ccc(Oc2ccccc2)c(C(F)(F)F)c1N1CCOC2(CCNCC2)C1)c1cncc(-c2ccnnc2)n1 [Example 9, (Z)-4-(6-(2-Fluoro-2-(6-(pyridazin-4-yl)pyrazin-2-yl)vinyl)-3-phenoxy-2-(trifluoromethyl)phenyl)-1-oxa-4,9-diazaspiro[5.5]undecane]	≤ 0.02	≤ 0.02
NC[C@H]1CCCN1c1c(/C=C(\F)c2cncc(-c3ccnnc3)n2)ccc(Oc2ccccc2)c1Cl [Example 12, (R,Z)-(1-(2-Chloro-6-(2-fluoro-2-(6-(pyridazin-4-yl)pyrazin-2-yl)vinyl)-3-phenoxyphenyl)pyrrolidin-2-yl)methanamine]	–	≤ 0.02
